# Results: patent US12466816B2, “Fused cyclic compound capable of degrading protein and use thereof” (Medshine Discovery Inc., priority 2019, dated 2025)
# Columns and labels:
# Format in all cases: cell-based
# Hep3B cells = test: Sensitivity of wild-type versus CRBN KO cells to WX106 (CCK-8); conditions: 10 μM, 72 h
# Procedure: (§1) The sgRNA sequence targeting CRBN was inserted into lenti Crispr V2 plasmid, the virus was co-packaged with the packaging vectors psPAX2 and pVSVG, and the cells were infected; screening was performed with puromycin (Invitrogen, A1113803) and the knockout of CRBN was identified by Western blot; finally, the cell growth was detected to calculate the survival rate.
# WX106 (10 μM) was added to wild-type Hep3B cells and Hep3B CRBN KO (knockout) hybrid clone cells, respectively, and cell proliferation was detected by CCK-8 after 72 h.
# MM.1S cells = test: Sensitivity of MM.1S versus low-CRBN-expression MM.1S-p5000 cells to WX106 (CCK-8); conditions: 10 μM, 72 h, MM.1S-p5000 versus MM.1S
# Procedure: WX106 (10 μM) was added to MM.1S cells and MM.1S-p5000 (Poma-resistant low-CRBN-expression cell line) cells, respectively, and cell proliferation was detected by CCK-8 after 72 h.
# Hep3B and SNU182 cells = test: Growth curves of stable CRBN knockout cell lines (pool); conditions: 10 μM
# Procedure: as §1
# Stable CRBN knockout cell lines (pool) were established in Hep3B and SNU182 cells, respectively, and treated with WX106 (10 μM) or solvent; the growth of cells was detected at different time points and the growth curves were drawn.
# GSPT1 = molecular target: T1, GSPT1 (Homo sapiens, UniProt P15170); test: Detection of protein degradation by the drug (Western blot); conditions: MOLT-4 cells
# T1 construct: endogenous in cells; host or cells: MOLT-4
# CK1α = molecular target: T2, CK1α (Homo sapiens, UniProt P48729); test: as above; conditions: MOLT-4 cells
# T2 construct: endogenous in cells; host or cells: MOLT-4
# CRBN = CRBN (Homo sapiens, UniProt Q96SW2); test: Protein degradation competition experiment (CC885-induced GSPT1 degradation); parameters: endogenous in cells; host or cells: MOLT-4; conditions: MOLT-4 cells, co-treated with 10 nM CC885, 4 hours, Western blot
# Procedure: MOLT-4 cells were co-treated with 0.1, 1 and 10 μM of WX106 and 10 nM of CC885 for 4 hours, and the protein level of GSPT1 was then detected by Western blot, with Poma (Pomalidomide, Selleck, S1567) acting as the positive control in the experiment. Cells were collected and denatured in protein loading buffer (50 mM Tris-HCL 2% SDS, 0.025% BPB, 1% β-mercaptoethanol, 10% glycerol) at 98° C. for 10 min. Proteins were separated by SDS-PAGE and transferred to a PVDF membrane (Millipore, IPVH00010), blocked with 5% skim milk (dissolved in TBST buffer), incubated with a primary antibody overnight at 4° C., and then incubated with a secondary antibody (Anti-rabbit IgG, HRP-linked Antibody, Cell Signaling, 7074S) at room temperature for 1 hour, and the bands on the membrane were detected by chemiluminescence (ECL chemiluminescence kit, Beyotime Biotechnology, P0018AM).
# Wee1 [1] = molecular target: T3, Wee1 (Homo sapiens, UniProt P30291); test: Label-free quantitative mass spectrometry for proteomic analysis; parameters: endogenous in cells; host or cells: MOLT-4; conditions: MOLT-4, 10 μM WX106 (10 μM MG132 where added), 6 hours, replicates
# Procedure: There are three treatment methods for the selected MOLT-4 cells; one is to directly add DMSO as a control, the other is to add 10 μM WX106, and the third is to add 10 μM WX106 and 10 μM MG132 (proteasome inhibitor; APEXBIO, A2585 and MG132 are capable of blocking ubiquitin-mediated protein degradation). Two replicates were prepared for the 10 μM WX106 plus 10 μM MG132 group, and three replicates were prepared for the DMSO control group and 10 μM WX106 administration group, respectively. The drug treatment time for MOLT-4 was 6 hours. Mass spectrometry samples were prepared based on the basic steps of urea cleavage, reductive alkylation, desalting, and lyophilization. The prepared samples were subjected to two-hour gradient analysis on a Q Exactive HF mass spectrometer, followed by data analysis.
# Wee1 [2] = molecular target: T3, Wee1; test: CRBN-dependent ubiquitin-mediated degradation of Wee1 (wild-type versus CRBN KO cells, Western blot); parameters: endogenous in cells; host or cells: U87-MG
# Procedure: 293T cells and 293T CRBN KO cells were treated with DMSO, 1 μM WX106, 10 μM WX106 alone or in combination with 10 μM MG132 for 16 h, the whole-cell lysates were collected, and Wee1 protein expression was detected using Western blot. […] U87-MG cells and U87-MG CRBN KO cells were treated with 10 μM WX106 or WX106 plus 10 μM MG132 for 16 h, and the level of Wee1 protein expression was detected using Western blot.
# Wee1 [3] = molecular target: T3, Wee1; test: Detection of protein degradation by the drug (Western blot); parameters: endogenous in cells; host or cells: MOLT-4, U87-MG; conditions: 6 hours
# Procedure: Cells were seeded in 6-well plates at a density of about 70%, and the compound WX106 of different concentrations (concentrations shown in the accompanying drawings) were added for 6 hours of treatment, and then the whole-cell lysates were collected for target protein detection. The antibody used was: (Wee1 (D10D2) Rabbit mAb, Cell Signaling, 13084S). To investigate whether drug-induced protein degradation occurs via the ubiquitin pathway, MG132 was used to block ubiquitin-mediated protein degradation. This method was also applied to 293T, MOLT-4, U87-MG, HCT116, and LN-229.
# FIG. 13 and FIG. 14 show the effect of WX106 on Wee1 protein expression in MOLT-4 cells.
smiles,measurement,setting,value
Cc1ccc(C(=O)Nc2ccc3occ(C4CCC(=O)NC4=O)c3c2)cc1Cl (stereo not shown) [WX106],sensitivity of cells to WX106 after CRBN knockout,Hep3B cells,significantly reduced
same,sensitivity of cells to WX106 with low CRBN expression,MM.1S cells,significantly less sensitive
same,sensitivity of cells with normal CRBN expression (growth curve),Hep3B and SNU182 cells; Hep3B and SNU182,very sensitive
same,growth rate of low-CRBN-expression cells compared with the solvent group,Hep3B and SNU182 cells; Hep3B and SNU182 CRBN knockout pools,no significant difference
same,pro-degradation effect on GSPT1,GSPT1,no significant pro-degradation effect
same,pro-degradation effect on CK1α,CK1α,no significant pro-degradation effect
same,effect on degradation of GSPT1 induced by CC885,CRBN,reversed
same,Wee1 LFQ intensity,Wee1 [1],0
same,level of Wee1 expression in CRBN-deficient cells,"Wee1 [2]; 293T CRBN KO cells, 1 μM or 10 μM, 16 h",no significant change
same,Wee1 degradation in wild-type cells,"Wee1 [2]; 293T cells, 1 μM or 10 μM, 16 h",promoted Wee1 degradation
same,pro-degradation effect on Wee1 when MG132 was added,"Wee1 [2]; wild-type 293T cells, with 10 μM MG132, 16 h",absent
same,pro-degradation effect on Wee1,Wee1 [3]; HCT116 cells,weak pro-degradation effect
same,pro-degradation effect on Wee1,Wee1 [3]; U87-MG cells,significant pro-degradation effect
